In ChEMBL document CHEMBL1201862, “PubChem BioAssay data set” (2004):
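Five compound concentrations were applied to cells in 96-well plates for 48 hours; endpoints were derived by simple linear interpolation of the resulting dose-response curve. The concentration for 50% growth inhibition is given as GI50.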 The source made the active and inactive calls. No stated cut-off is given here; in the data, active = GI50 up to about 1.1 µM and inactive = higher.

How the values were obtained:
Assay in all cases: NCI tumour cell line growth inhibition, 48 h
A498 = test system: A498
A549 = test system: A549
ACHN = test system: ACHN
BT-549 = test system: BT-549
CAKI-1 = test system: CAKI-1
DU-145 = test system: DU-145
EKVX = test system: EKVX
HCC 2998 = test system: HCC 2998
HL-60 = test system: HL-60
HT-29 = test system: HT-29
IGROV-1 = test system: IGROV-1
Malme-3M = test system: Malme-3M
NCI-H522 = test system: NCI-H522
NCI/ADR-RES = test system: NCI/ADR-RES
PC-3 = test system: PC-3
U-251 = test system: U-251
UACC-62 = test system: UACC-62
MCF7 = test system: MCF7
UO-31 = test system: UO-31

Measured: GI50

CN(C)c1ccc(C2ON=C(c3ccccc3)N2C23CC4CC(CC(C4)C2)C3)cc1 (centres undefined)
inactive: A498 > 10 µM | A549 > 10 µM | ACHN > 10 µM | BT-549 > 10 µM | CAKI-1 > 10 µM | DU-145 > 10 µM | EKVX > 10 µM | HCC 2998 > 10 µM | HL-60 9.55 µM | HT-29 > 10 µM | IGROV-1 > 10 µM | Malme-3M > 10 µM | NCI-H522 > 10 µM | NCI/ADR-RES > 10 µM | PC-3 > 10 µM | U-251 > 10 µM | UACC-62 > 10 µM

Cc1nc2sc(CCl)nn2c(=O)c1Cl
inactive: A549 15.1 µM | ACHN 15.7 µM | BT-549 2.73 µM | CAKI-1 11.2 µM | DU-145 16.1 µM | EKVX 11.1 µM | HCC 2998 22 µM | HL-60 13.1 µM | HT-29 12.9 µM | IGROV-1 15 µM | MCF7 4.58 µM | Malme-3M 11.2 µM | NCI-H522 3.15 µM | NCI/ADR-RES 18.8 µM | PC-3 12.3 µM | U-251 6.08 µM | UACC-62 14 µM | UO-31 14.2 µM

COc1ccccc1NC(=O)/C(Cc1nc2ccc([N+](=O)[O-])cc2nc1O)=N\NC(=O)C[N+](C)(C)C
inactive: A549 > 100 µM | ACHN > 100 µM | BT-549 > 100 µM | CAKI-1 70.3 µM | DU-145 > 100 µM | EKVX 78 µM | HCC 2998 29.6 µM | HL-60 12.3 µM | HT-29 30.5 µM | IGROV-1 55.3 µM | MCF7 72.8 µM | NCI-H522 28.3 µM | NCI/ADR-RES 38.6 µM | PC-3 > 100 µM | U-251 > 100 µM | UACC-62 62.5 µM | UO-31 25.7 µM

COc1ccc(-c2c(C#N)c(N)nc3c2CCS(=O)(=O)c2ccccc2-3)cc1
inactive: A498 > 100 µM | A549 > 100 µM | ACHN > 100 µM | BT-549 > 100 µM | CAKI-1 > 100 µM | DU-145 > 100 µM | HCC 2998 > 100 µM | HL-60 > 100 µM | HT-29 > 100 µM | IGROV-1 > 100 µM | Malme-3M 44.3 µM | NCI-H522 > 100 µM | NCI/ADR-RES > 100 µM | PC-3 > 100 µM | U-251 > 100 µM | UACC-62 > 100 µM | UO-31 > 100 µM

Clc1ccc(-c2cn3c(nc4ccccc43)c(/C=C/c3cccs3)n2)cc1
inactive: A498 > 100 µM | A549 > 100 µM | ACHN > 100 µM | BT-549 > 100 µM | DU-145 > 100 µM | HCC 2998 > 100 µM | HL-60 > 100 µM | HT-29 > 100 µM | IGROV-1 92 µM | MCF7 7.08 µM | Malme-3M > 100 µM | NCI/ADR-RES > 100 µM | PC-3 44.9 µM | U-251 95.7 µM | UACC-62 > 100 µM | UO-31 > 100 µM

Cc1ccc([S+]([O-])C[C@](NC(=O)OCc2ccccc2)(Sc2ccccc2)C(F)F)cc1 (some centres undefined)
inactive: A498 13.5 µM | A549 28.6 µM | ACHN 20.7 µM | BT-549 16.3 µM | CAKI-1 21.5 µM | DU-145 18.7 µM | EKVX 13.7 µM | HCC 2998 18.7 µM | HL-60 4.12 µM | HT-29 16.6 µM | IGROV-1 8.69 µM | Malme-3M 21.3 µM | NCI-H522 7.13 µM | NCI/ADR-RES 17 µM | PC-3 21.2 µM | U-251 17 µM | UACC-62 14.8 µM | UO-31 6.56 µM

O=C1/C(=C\c2ccc(Cl)cc2Cl)Sc2scc(-c3ccc(O)c(O)c3)[n+]21
inactive: A549 16.9 µM | ACHN 18.8 µM | BT-549 17.9 µM | CAKI-1 20.1 µM | DU-145 18.3 µM | EKVX 19.9 µM | HCC 2998 17 µM | HL-60 8.77 µM | HT-29 16.7 µM | IGROV-1 21.2 µM | MCF7 16.2 µM | NCI-H522 16.5 µM | NCI/ADR-RES 15.1 µM | PC-3 13.7 µM | U-251 11.9 µM | UACC-62 7.36 µM | UO-31 13 µM

COc1ccc(C#CC(=O)O)c(OC)c1
inactive: A498 > 100 µM | A549 > 100 µM | ACHN > 100 µM | BT-549 > 100 µM | CAKI-1 > 100 µM | DU-145 > 100 µM | EKVX > 100 µM | HCC 2998 > 100 µM | HL-60 > 100 µM | HT-29 > 100 µM | MCF7 > 100 µM | Malme-3M > 100 µM | NCI/ADR-RES > 100 µM | PC-3 > 100 µM | U-251 > 100 µM | UACC-62 > 100 µM | UO-31 > 100 µM

Cc1cc2nc(N3C(=O)/C(=C/Cc4ccco4)N=C3c3ccccc3)sc2cc1C
inactive: A549 36.9 µM | ACHN 26.7 µM | BT-549 30.5 µM | CAKI-1 44.4 µM | DU-145 61.9 µM | EKVX 20.7 µM | HCC 2998 24.6 µM | HL-60 23 µM | HT-29 23.7 µM | IGROV-1 21.3 µM | MCF7 13.4 µM | NCI/ADR-RES 27.6 µM | PC-3 12.1 µM | U-251 29 µM | UACC-62 23.3 µM | UO-31 26.6 µM

CC(=O)NCCc1c[nH]c2ccc(Cl)cc12
inactive: A549 > 100 µM | ACHN > 100 µM | BT-549 25 µM | CAKI-1 > 100 µM | DU-145 > 100 µM | EKVX > 100 µM | HCC 2998 74.8 µM | HL-60 > 100 µM | HT-29 > 100 µM | IGROV-1 > 100 µM | MCF7 > 100 µM | Malme-3M > 100 µM | NCI-H522 91 µM | NCI/ADR-RES > 100 µM | PC-3 > 100 µM | U-251 > 100 µM | UACC-62 > 100 µM | UO-31 > 100 µM

O=C(Nc1ccc(Cl)c(Cl)c1)OCCN1c2ccccc2Sc2ccccc21
inactive: A549 > 10 µM | ACHN > 10 µM | BT-549 > 10 µM | CAKI-1 > 10 µM | DU-145 > 10 µM | HCC 2998 > 10 µM | HL-60 > 10 µM | HT-29 > 10 µM | IGROV-1 > 10 µM | MCF7 > 10 µM | Malme-3M > 10 µM | NCI-H522 > 10 µM | NCI/ADR-RES > 10 µM | PC-3 > 10 µM | U-251 > 10 µM | UACC-62 > 10 µM

CC(C)(C)c1c(C(C)(C)C)c(=O)c1=O
inactive: A498 86.1 µM | A549 > 100 µM | ACHN > 100 µM | BT-549 > 100 µM | CAKI-1 > 100 µM | DU-145 > 100 µM | EKVX > 100 µM | HCC 2998 > 100 µM | HL-60 > 100 µM | HT-29 > 100 µM | MCF7 > 100 µM | Malme-3M > 100 µM | NCI/ADR-RES > 100 µM | PC-3 > 100 µM | U-251 > 100 µM | UACC-62 > 100 µM | UO-31 > 100 µM
